Source: paper PMC4788259 (PLoS Neglected Tropical Diseases, 2016)
“And” between values parts separate entries of the source, which are not always exact repeats. Equal entries are not always repeated. Where two headings read alike, the source gives them in different places.

Legend:
[1] = design: method as in earlier work; conditions: MMS, Human; ref MMV; cited from earlier work
[2] = design: method as in earlier work; conditions: ref MMV; cited from earlier work
[3] = system: murine macrophages; design: method as in PMID 23211970; conditions: cited from earlier work
[4] = cited from earlier work
[5] = system: human foreskin fibroblasts (HFF); test: alamarBlue viability assay on HFF; assay type: cell-based; conditions: Fibroblast, 120 h, 5 days
Description: (§1) For testing growth inhibitory effects on confluent host cells, cells were seeded in 96-well plates (10,000 cells per well for HFF and 50,000 cells per well for RH cells), in DMEM containing FBS (10%) and antibiotics (100 U penicillin, 100 μg streptomycin and 0.25 μg amphotericin B per mL medium) and were cultured overnight at 37°C, 5% CO2. Thereafter the drugs (10 μM) were added and diluted in a serial 1:2 dilutions down to 20 nM. The concentration range was further adjusted in subsequent setups. For testing growth inhibitory effects on proliferating cells, cells were seeded at 1,000 (HFF) and 5,000 (RH) cells per well, and were allowed to attach for 5 hours at 37°C before addition of the drugs. After 5 days of culture, cell viability was assessed by alamarBlue assay.

[6] = system: E. multilocularis metacestodes; test: Intraperitoneal treatment of secondary infected mice; assay type: in vivo, BALB/c mice; conditions: 4 weeks, MMV665807 100 mg/kg i.p. three times per week, ABZ 200 mg/kg p.o. 5 days per week
Description: Animals were kept at a temperature-controlled 12/12 hours light cycle with food and water ad libitum and according to the Swiss Animal protection law. For the in vivo treatment of MMV665807, BALB/c mice (from Charles River, Sulzfeld, Germany), at the age of 8 weeks with an average body weight of 20 g, were i.p. infected with 200 μL metacestodes vesicle suspension. This material was prepared from in vitro-cultured metacestodes (strain H95), which were disintegrated by pressing the parasites through a 1 mL pipette tip. Parasite tissue was centrifuged at 500 x g for 5 min at room temperature before being mixed 1:1 in PBS.
I.p. drug treatments were initiated 2 weeks post-infection. 32 infected mice were randomly separated into 4 groups with 2 times 4 animals per cage. All animals were exposed to 4 weeks of treatment, with five consecutive days of drug application followed by a 2 day recovery period without treatment. Treatment groups were defined as follows: group 1 (control) received 50 μL of corn oil by gavage on 5 days per week, and an i.p. injection of DMSO in corn oil (4 μL DMSO and 46 μL corn oil) on three days per week; group 2 also received corn oil by gavage 5 days per week, and an i.p. injection of MMV665807 (100 mg/kg in 4 μL DMSO plus 46 μL corn oil) three times per week; group 3 was treated with the standard albendazole treatment (albendazole in corn oil, 200 mg/kg/ day for 5 days each week) and also received an i.p. injection of 4 μl DMSO suspended in 46 μl corn oil three times per week; group 4 received a combined treatment consisting of albendazole in corn oil by gavage (200 mg/kg/day 5 days per week) and an i.p. injection of MMV665807 (100 mg/kg three times per week). After 4 weeks of treatment, mice were euthanized and the parasite mass resected and measured as described above. Statistical analyses were performed as described above.

[7] = system: E. multilocularis metacestode vesicles; test: microbe, parasite or virus in culture; conditions: Echinococcus multilocularis, 288 h, read-out: mean viability
[8] = system: T. gondii; design: method as in PMID 22970937; conditions: cited from earlier work
[9] = design: method as in earlier work; conditions: PLS, ref MMV; cited from earlier work
[10] = design: method as in earlier work; conditions: MMS, Mouse; ref MMV; cited from earlier work
[11] = design: method as in earlier work; conditions: HMS, Human; ref MMV; cited from earlier work
[12] = system: M. tuberculosis; design: method as in PMID 23211970; conditions: cited from earlier work
[13] = system: Reuber rat hepatoma (RH) cells; test: alamarBlue viability assay on RH cells; assay type: cell-based; conditions: 120 h, 5 days
Description: as §1

[14] = PO, administered dose 119 μmol/kg, ref MMV

O=C(Nc1cccc(C(F)(F)F)c1)c1cc(Cl)ccc1O [MMV665807]
CL [1]: 66.8 µL/min/mg | CLh [1]: 15.9 mL/min/kg | CLint [1]: 66.1 mL/min/kg | T1/2 [1]: 41.5 min | Kinetic Solubility pH=7.4 [2]: 1.12 µg/mL and 3.55 µM | IC50 [3]: 5.9 µM | AUC0-last [4, 14]: 0.264 µM·h | Cmax [4, 14]: 62.3 nM | MRT0-last [4, 14]: 314 min | Tlast [4, 14]: 9.00 h | Tmax [4, 14]: 380 min | plasma level ([4]; single dose p.o. application of 50 mg/kg, ref MMV (S3 Table)): 60 nM | IC50 ([5]; confluent cells, read-out: Confluent HFF (IC50)): 29.2 ± 0.06 µM | IC50 ([5]; proliferating cells, read-out: Preconfluent HFF (IC50)): 4.8 ± 0.59 µM | parasite weight compared to placebo group ([6]; start 2 weeks post-infection): did not result in a reduction | adverse effects during treatment [6]: No adverse effects | viability at 0.1 µM [7]: 59.7% | viability at 0.2 µM [7]: 65.5% | viability at 0.4 µM [7]: 69% | viability at 0.8 µM [7]: 97.9% | viability at 1.6 µM [7]: 5.29% | viability at 3.1 µM [7]: 6.06% | viability at 6.3 µM [7]: 4.71% | viability at 12.5 µM [7]: 2.84% | viability at 25 µM [7]: 2.92% | viability at 50 µM [7]: 2.9% | viability at 100 µM [7]: 3.06% | in vitro activity against T. gondii [8]: moderate in vitro activity | % Remaining after Incubation (60 min) CD-1 Mouse Plasma [9]: 102.5% | CL [10]: 190.4 µL/min/mg | CLh [10]: 80.4 mL/min/kg | CLint [10]: 754.0 mL/min/kg | T1/2 [10]: 14.6 min | CLint [11]: 107.6 mL/min/kg | t½ [11]: 23.3 min | MIC [12]: 3.1 to 6.3 µM | IC50 ([13]; confluent cells, read-out: Confluent RH (IC50)): 20.5 ± 0.13 µM | IC50 ([13]; proliferating cells, read-out: Preconfluent RH (IC50)): 4.3 ± 0.14 µM
